Experimental data taken from US20170158702A1, “MULTIVALENT RAS BINDING COMPOUNDS” (KYRAS THERAPEUTICS, INC., priority 2015, published 2017).
Structures can show the parent of a compound that is named as a salt.

Columns and labels:
Format in all cases: cell-based
MIA PaCa-2 = assay: Viability assay with MIA PaCa-2; conditions: MIA PaCa-2, viability assay per Example 57
Method: (§1) NCI-H460 (Epithelial lung tissue; carcinoma; large cell lung cancer) were cultured in RPMI Medium 1640 (Invitrogen-22400105) supplemented with 10% fetal bovine serum (FBS; Invitrogen-10099141). All the cell lines were maintained in a humidified incubator at 37° C. with 5% CO2. Cell culture media and supplements were purchased from Invitrogen, and tissue culture flasks were purchased from Corning, 96-well plates were purchased from Greiner. CellTiter-Glo Luminescent Cell Viability Assay kits were purchased from Promega (Promega-G7573), cells counter Vi-Cell was purchased from Beckman, D300e digital dispenser was purchased from Tecan, detection instrument Envision was purchased from PerkinElmer.
(§2) Paclitaxel was purchased from SELLECK, test compounds, such as any one of the compounds disclosed herein, attained solubility in DMSO and when diluted into culture media. DMSO, solutions containing the test compounds, and culture media were warmed to 37° C. or room temperature for the solution preparation and dilutions.
(§3) NCI-H460 Cell line were seeded in 96-well plates (1200/well) and allowed to adhere to overnight (100 uL/well), for drug treatments with 2 fold dilution, 9 dose points, triplicates or vehicle control, compound stock solutions were prepared in DMSO and use D300e digital dispenser to add compounds to the wells to give the indicated final drug concentrations. Final DMSO concentration was 0.5%. Cellular ATP concentrations were assessed by using the CellTiter-Glo Cell Viability Assay as per the manufacturer's instructions 72 h after compounds addition. Additional cells lines were assayed with any one of the compounds disclosed herein according to the procedures described for the viability assay with NCI-H460.
A viability assay with MIA PaCa-2 (Epithelial pancreas tissue; carcinoma) was performed with compounds listed in Table 15, according to the procedures described in Example 57.

HT-29 = assay: Viability assay with HT-29; conditions: HT-29, viability assay per Example 57
Method: as §1, §2, §3
A viability assay with HT-29 (Colorectal adenocarcinoma) was performed with compounds listed in Table 18 according to the procedures described in Example 57.

NCI-H460 = assay: Viability assay with NCI-H460 (CellTiter-Glo cytotoxicity assay, 72 h); conditions: NCI-H460 cell line, 72 h after compounds addition
Method: as §1, §2, §3

| Compound | EC50 (MIA PaCa-2) | EC50 (HT-29) | EC50 (NCI-H460) |
| --- | --- | --- | --- |
| FC(F)(F)Oc1ccc(-c2cn(CCCCNc3ccccn3)c3ccc(CN4CCN(Cc5ccccc5Cl)CC4)cc23)cc1 [C202; Formic Acid] | 5 to 10 µM | 5 to 10 µM | ≤ 5 µM |
| NCCCn1cc(-c2ccc(C(N)=O)cc2)c2cc(CN3CCN(Cc4ccccc4Cl)CC3)ccc21 [C180; HCl] | ≤ 5 µM | ≤ 5 µM | ≤ 5 µM |
| Cc1ccc(CN2CCN(Cc3ccc4c(c3)c(-c3ccc(OC(F)(F)F)cc3)cn4CCCN)CC2)cc1 [C146; HCl] | ≤ 5 µM | ≤ 5 µM | ≤ 5 µM |
| NCCCn1cc(-c2ccc(OC(F)(F)F)cc2)c2cc(CN3CCN(CCc4ccccc4Cl)CC3)ccc21 [C140; HCl] | ≤ 5 µM | ≤ 5 µM | ≤ 5 µM |
| NCCCn1cc(-c2ccc(OC(F)(F)F)cc2)c2cc(CN3CCC(Nc4ccccc4Cl)CC3)ccc21 [C213; Formic Acid] | ≤ 5 µM | ≤ 5 µM | ≤ 5 µM |
| CC(C)(N)CCCn1cc(-c2ccc(OC(F)(F)F)cc2)c2cc(CN3CCN(Cc4ccccc4Cl)CC3)ccc21 [C132; Formic acid] | ≤ 5 µM | ≤ 5 µM | ≤ 5 µM |
| COc1cccc(C(C)(C)N2CCN(Cc3ccc4c(c3)c(-c3ccc(OC(F)(F)F)cc3CN)cn4CCCN)CC2)c1 [C283; HCl] | ≤ 5 µM | ≤ 5 µM | ≤ 5 µM |
| NCc1ccc(Cn2cc(-c3ccc(OC(F)(F)F)cc3)c3cc(CN4CCN(Cc5ccccc5Cl)CC4)ccc32)cn1 [C224; Formic Acid] | ≤ 5 µM | ≤ 5 µM | ≤ 5 µM |
| NCCCn1cc(-c2ccc(OC(F)(F)F)cc2CN)c2cc(S(=O)(=O)N3CCN(Cc4ccccc4Cl)CC3)ccc21 [C245; Formic Acid] | ≤ 5 µM | ≤ 5 µM | ≤ 5 µM |
| NCc1ccc(-n2cc(-c3ccc(OC(F)(F)F)cc3)c3cc(CN4CCN(Cc5ccccc5Cl)CC4)ccc32)cc1 [C149; Formic Acid] | ≤ 5 µM | ≤ 5 µM | ≤ 5 µM |
| NCCCn1cc(-c2ccc(OC(F)(F)F)cc2)c2cc(NC3CCN(Cc4ccccc4Cl)CC3)ccc21 [C129; HCl] | ≤ 5 µM | ≤ 5 µM | ≤ 5 µM |
| NCCCn1cc(-c2ccc(OC(F)(F)F)cc2CN)c2cc(S(=O)(=O)N3CCC(Nc4cccc(Cl)c4)CC3)ccc21 [C263; Formic Acid] | ≤ 5 µM | 5 to 10 µM | ≤ 5 µM |
| NCc1cccc(-n2cc(-c3ccc(OC(F)(F)F)cc3)c3cc(CN4CCN(Cc5ccccc5Cl)CC4)ccc32)c1 [C150; Formic acid] | ≤ 5 µM | ≤ 5 µM | ≤ 5 µM |
| Nc1ccc(Cn2cc(-c3ccc(OC(F)(F)F)cc3)c3cc(CN4CCN(Cc5ccccc5Cl)CC4)ccc32)cc1 [C220; Formic Acid] | 5 to 10 µM | 5 to 10 µM | 5 to 10 µM |
| NCCCn1cc(-c2ccc(CO)cc2)c2cc(CN3CCN(Cc4ccccc4Cl)CC3)ccc21 [C142; Formic Acid] | 5 to 10 µM | 5 to 10 µM | ≤ 5 µM |
| COc1cc(CN2CCN(S(=O)(=O)c3ccc4c(c3)c(-c3ccc(OC(F)(F)F)cc3CN)cn4CCCN)CC2)cc(OC)c1 [C240; Formic Acid] | ≤ 5 µM | ≤ 5 µM | ≤ 5 µM |
| COc1cccc(CN(C)CCN(C)Cc2ccc3c(c2)c(-c2ccc(OC(F)(F)F)cc2CN)cn3CCCN)c1 [C296; HCl] | ≤ 5 µM | ≤ 5 µM | ≤ 5 µM |
| NCCCn1cc(-c2ccccc2CCN)c2cc(CN3CCN(Cc4ccccc4Cl)CC3)ccc21 [C131; HCl] | – | ≤ 5 µM | – |
| NCc1ccc(-n2cc(-c3ccc(OC(F)(F)F)cc3)c3cc(CN4CCN(Cc5ccccc5Cl)CC4)ccc32)cn1 [C218; Formic Acid] | ≤ 5 µM | ≤ 5 µM | ≤ 5 µM |

Continued, in another order:

| EC50 (MIA PaCa-2) | EC50 (HT-29) | Compound | EC50 (NCI-H460) |
| --- | --- | --- | --- |
| ≤ 5 µM | ≤ 5 µM | NCCCn1cc(-c2ccc(OC(F)(F)F)cc2)c2cc(CN3CCC(Oc4ccccc4Cl)CC3)ccc21 [C215; HCl] | ≤ 5 µM |
| 5 to 10 µM | 5 to 10 µM | NCCCn1cc(-c2c(F)cccc2C(N)=O)c2cc(CN3CCN(Cc4ccccc4Cl)CC3)ccc21 [C289; HCl] | 5 to 10 µM |
| ≤ 5 µM | ≤ 5 µM | FC(F)(F)Oc1ccc(-c2cn(C3CCNC3)c3ccc(CN4CCN(Cc5ccccc5Cl)CC4)cc23)cc1 (stereo not shown) [C197; HCl] | ≤ 5 µM |
| ≤ 5 µM | ≤ 5 µM | NCCCn1cc(-c2ccc(OC(F)(F)F)cc2CN)c2cc(CN3CCC(Cc4ccccc4Cl)CC3)ccc21 [C221; HCl] | ≤ 5 µM |
| ≤ 5 µM | ≤ 5 µM | NCCCn1cc(-c2ccc(OC(F)(F)F)cc2)c2c(CN3CCN(CCOc4ccc(Cl)cc4)CC3)cccc21 [C144; HCl] | ≤ 5 µM |
| ≤ 5 µM | ≤ 5 µM | NCCCn1cc(-c2ccc(OC(F)(F)F)cc2CN)c2cc(CN3CCSCC3)ccc21 [C282; HCl] | ≤ 5 µM |
| 5 to 10 µM | 5 to 10 µM | NCCCn1cc(-c2cn[nH]c2)c2cc(CN3CCN(Cc4ccccc4Cl)CC3)ccc21 [C192; HCl] | 5 to 10 µM |
| ≤ 5 µM | ≤ 5 µM | NCCCn1cc(-c2ccc(OC(F)(F)F)cc2)c2cc(CN3CCC(Oc4ccc(Cl)cc4)CC3)ccc21 [C216; HCl] | ≤ 5 µM |
| 5 to 10 µM | ≤ 5 µM | CC1(C)CCN(Cc2ccc3c(c2)c(-c2ccc(OC(F)(F)F)cc2CN)cn3CCCN)CC1 [C272; HCl] | ≤ 5 µM |
| ≤ 5 µM | ≤ 5 µM | FC(F)(F)Oc1ccc(-c2cn(CC3CCNCC3)c3ccc(CN4CCN(Cc5ccccc5Cl)CC4)cc23)cc1 [C171; HCl] | ≤ 5 µM |
| ≤ 5 µM | ≤ 5 µM | COc1ccc(-c2cn(CCCN)c3ccc(CN4CCN(Cc5ccccc5Cl)CC4)cc23)c(CNS(C)(=O)=O)c1 [C287; HCl] | ≤ 5 µM |
| ≤ 5 µM | ≤ 5 µM | CCC1CCN(Cc2ccc3c(c2)c(-c2ccc(OC(F)(F)F)cc2)cn3CCCN)CC1 [C226; HCl] | ≤ 5 µM |
| ≤ 5 µM | ≤ 5 µM | FC(F)(F)Oc1ccc(-c2cn(CC3CNCCO3)c3ccc(CN4CCN(Cc5ccccc5Cl)CC4)cc23)cc1 (stereo not shown) [C231; HCl] | ≤ 5 µM |
| ≤ 5 µM | ≤ 5 µM | NCCCn1cc(-c2ccc(OC(F)(F)F)cc2)c2cc(CN3CCC(O)CC3)ccc21 [C295; HCl] | ≤ 5 µM |
| ≤ 5 µM | 5 to 10 µM | NCCCn1cc(-c2ccc(OC(F)(F)F)cc2CN)c2cc(CN3CCCCC3)ccc21 [C260; HCl] | 5 to 10 µM |
| ≤ 5 µM | ≤ 5 µM | Cc1cc(Cl)ccc1CN1CCN(Cc2ccc3c(c2)c(-c2ccc(OC(F)(F)F)cc2)cn3CCCN)CC1 [C139; HCl] | ≤ 5 µM |
| ≤ 5 µM | ≤ 5 µM | COc1cc(OC)cc(C(C)(C)N2CCN(Cc3ccc4c(c3)c(-c3ccc(OC(F)(F)F)cc3CN)cn4CCCN)CC2)c1 [C285; HCl] | ≤ 5 µM |
| ≤ 5 µM | ≤ 5 µM | NCCCn1cc(-c2ccc(OC(F)(F)F)cc2CN)c2cc(CN3CCS(=O)(=O)CC3)ccc21 [C288; HCl] | ≤ 5 µM |
| ≤ 5 µM | ≤ 5 µM | FC(F)(F)Oc1ccc(-n2cc(C3CCNCC3)c3cc(CN4CCN(Cc5ccccc5Cl)CC4)ccc32)cc1 [C217; HCl] | ≤ 5 µM |
| 5 to 10 µM | 5 to 10 µM | NCCCn1cc(-c2ccccc2C(N)=O)c2cc(CN3CCN(Cc4ccccc4Cl)CC3)ccc21 [C185; HCl] | 5 to 10 µM |
| ≤ 5 µM | ≤ 5 µM | COc1cnc(-c2cn(CCCN)c3ccc(CN4CCN(Cc5ccccc5Cl)CC4)cc23)nc1 [C204; HCl] | ≤ 5 µM |
| 5 to 10 µM | 5 to 10 µM | FC(F)(F)Oc1ccc(-c2cn(CCNc3ccccn3)c3ccc(CN4CCN(Cc5ccccc5Cl)CC4)cc23)cc1 [C199; HCl] | 5 to 10 µM |
| 5 to 10 µM | 5 to 10 µM | CCC1CCN(Cc2ccc3c(c2)c(-c2ccc(C)cc2CN)cn3CCCN)CC1 [C256; HCl] | 5 to 10 µM |
| ≤ 5 µM | ≤ 5 µM | CCCCn1cc(-c2ccc(OC(F)(F)F)cc2CN)c2cc(CN3CCN(Cc4ccccc4Cl)CC3)ccc21 [C227; HCl] | ≤ 5 µM |
| ≤ 5 µM | ≤ 5 µM | NCCCn1cc(-c2ccc(OC(F)(F)F)cc2CN)c2cc(CN3CCC4(CCN(Cc5ccccc5Cl)CC4)C3)ccc21 [C250; HCl] | ≤ 5 µM |
| ≤ 5 µM | ≤ 5 µM | CC1CCN(Cc2ccc3c(c2)c(-c2ccc(OC(F)(F)F)cc2CN)cn3CCCN)CC1 [C257; HCl] | ≤ 5 µM |
| ≤ 5 µM | ≤ 5 µM | NCCCn1cc(-c2ccc(OC(F)(F)F)cc2)c2cc(CN3CCN(Cc4ccc(Cl)cc4)CC3)ccc21 [C137; HCl] | ≤ 5 µM |
